Data as given in US10736933B2, “Peptide-induced NK cell activation” (priority 2015, dated 2020).

System: NK cell line transfected with KIR2DS2
Assay: DAP12 phosphorylation after KIR2DS2 immunoprecipitation (Western blot)
Type: cell-based
Details: L721.174 cells with peptide at a concentration of 2004, NK cell line with KIR2DS2 for 5 minutes
Protocol: A. L721.174 cells were incubated with indicated peptides. The cells were then incubated with the NK cell line transfected with KIR2DS2. The cells were lysed and the KIR2DS2 was then immunoprecipitated from the mixture using the GL183 antibody coupled to protein-G beads. The immune precipitate was analysed by Western blotting using a phosphotyrosine antibody. The membrane was then stripped and reprobed with an antibody to DAP12 the molecule that transduces a positive signal from KIR2DS2. Shown are the regions on the blots at the level of DAP12 (12-15 kDa). B. L721.174 cells were incubated with indicated peptides. The cells were then incubated with the NK cell line transfected with KIR2DS2 or transfected with KIR2DL2. The cells were lysed in 1% NP-40 and then analysed by Western blotting using antibodies to pVav1 and then following stripping of the membrane to Vav1. Shown are Western blots around the 98 kDa region, and below them the corresponding densitometries for 3 independent experiments.
With reference to FIG. 6A, 1×10^6 L721.174 cells were incubated overnight at 26° C. with indicated peptides at a concentration of 2004. […] The immune precipitate was analysed by Western blotting using a phosphotyrosine antibody. […] The cells were lysed in 1% NP-40 and then analysed by Western blotting using antibodies to pVav1 and then following stripping of the membrane to Vav1. […]

LNPSVAATL [peptide recognized by KIR2DS2-positive NK cells]
phosphorylation of DAP12: induces phosphorylation of DAP12
